According to US7955623B2, “Pharmaceutical preparations for treating inflammatory diseases” (priority 2008, dated 2011):
Entries after “also recorded” stand apart in the source; their conditions may differ. Peptide text beside a SMILES is read from it. * marks the point of attachment. Cbz = O=C(OCc1ccccc1)*; OtBu = CC(C)(C)O*

Tested on: NF-κB
Assay: Electrophoretic mobility shift assay of TNF-induced NF-κB activation in cell lines
Assay type: cell-based, human
Conditions: for Effect on TNF-induced NF-κB-activity of ozonized substance in phosphate-buffered saline: medium concentration in PBS, 100% ozonation state, 1 hr preincubation, TNF 1 ng/mL 15 min; for Inhibition of TNF-induced NF-κB-activity: preincubation 10 μM, 1 hr, n=3
Protocol: A) BHY cells were preincubated with serum-free O3-medium (15 min; the ozonation state is indicated in %) before TNF was added (20 ng/mL, 45 min) and electrophoretic mobility shift assay was performed (NF-κB and Sp-1 binding). The asterisk marks a control reaction in which a 100-fold concentration of unlabeled consensus oligonucleotide was added. B) Cells were treated with O3-medium (HGF-1, 45 min; HeLa, 1 hr) followed by stimulation with TNF (HGF-1, 5 ng/mL for 45 min; HeLa, 1 ng/mL for 15 min). NF-κB-activity normalized to Sp-1 is shown (densitometric analysis). NF-κB-activity after TNF stimulation following preincubation with non-ozonized medium was defined as 100% (dashed line) (n=3, mean±SD). C) Periodontal ligament tissue debris separated into equal-sized portions was incubated (1 hr, 37° C.) with serum-free non-ozonized medium (indicated by “-”) or O3-medium (100% ozonation state, indicated by “+”) followed by 2 hr incubation in fresh medium without ozone. The samples were shock frozen, homogenized and nuclear extracts prepared. Left: Electrophoretic mobility shift assays were performed (NF-κB and Sp-1 binding). The asterisk marks a control reaction in which a 100-fold concentration of unlabeled consensus oligonucleotide was added. Right: Densitometrically measured NF-κB-activity was normalized to Sp-1 (n=3, mean±SD). […] A) HeLa cells were incubated with O3-phosphate-buffered saline (1 hr) followed by TNF stimulation (1 ng/mL, 15 min). The ozonation state is indicated in %. Electrophoretic mobility shift assay was performed to determine NF-κB-activity as well as Sp-1 binding. B) Cells were preincubated (1 hr) with non-ozonized or ozonized amino acids (medium concentration) dissolved in phosphate-buffered saline (100% ozonation state) followed by stimulation with TNF (1 ng/mL, 15 min). The activation of NF-κB was determined by electrophoretic mobility shift assay. C) Densitometric analysis of the NF-κB-activity normalized to Sp-1 is shown (n=3, mean±SD). NF-κB-activity of cells preincubated with non-ozonized amino acids in phosphate-buffered saline and stimulated with TNF was defined as 100% (dashed line). D) HeLa cells were preincubated with non-ozonized or ozonized glucose (medium concentration) followed by TNF stimulation. The NF-κB-activity compared to Sp-1 binding was determined by electrophoretic mobility shift assay. […] The proteasome inhibitor PSI was from Calbiochem (Darmstadt, Germany). A potential toxicity of culture conditions was monitored by cell morphology/count, trypan-blue-exclusion and the Luminescent-Cell-Viability-Assay (Promega, Mannheim, Germany). […] Aqueous ozone was applied to the cells in form of ozonized medium without fetal calf serum (O3-medium) or ozonized phosphate-buffered saline (O3-phosphate-buffered saline) without/with 1 g/L amino acids or 2 g/L glucose. These solutions were treated with gaseous ozone (75 μg/mL, 15 min) using an ozone generator (Ozonosan-photonic, Dr. […], Germany). This condition, which applied to water would result in a final ozone concentration of 20 μg/mL (saturation point), was defined as the 100% ozonation state. For dose response experiments, the solutions were accordingly diluted. The ozone gas concentration was monitored by a photometer integrated in the ozone generator and confirmed by another ozone gas detector (GM-6000-NZL, Anseros, Tubingen, Germany). The ozone concentrations of the respective aqueous solutions were monitored photometrically ([…], England). […] The prototypic immunoglobulin κ-chain oligonucleotide was used as a probe and labeled with the Klenow fragment of DNA polymerase I (Roche, Penzberg, Germany) together with [α-^32P]dCTP (PerkinElmer-LifeSciences, Brussels, Belgium). The Sp-1 consensus oligonucleotide (Promega) was labeled with [γ-^32P]ATP (PerkinElmer-LifeSciences) and T4-polynucleotide-kinase (Roche). Samples were run on non-denaturing 4% polyacrylamide gels and analyzed by autoradiography.

Row | SMILES | Effect on TNF-induced NF-κB-activity of ozonized substance in phosphate-buffered saline | Inhibition of TNF-induced NF-κB-activity (BHY cells) | Inhibition of TNF-induced NF-κB-activity (HeLa cells)
1 | N[C@@H](Cc1c[nH]c2ccccc12)C(=O)O [tryptophan] | blocked the NF-κB signal almost completely; also recorded: most effective | – | –
2 | CC[C@H](C)[C@H](NC(=O)OCc1ccccc1)C(=O)N[C@@H](CCC(=O)OC(C)(C)C)C(=O)N[C@@H](C)C(=O)N[C@H](C=O)CC(C)C [PSI, reference compound] (Cbz-IE(OtBu)AL-aldehyde) | – | 68±7% | 75±6%
3 | CSCC[C@H](N)C(=O)O [methionine] | clear inhibition | – | –
4 | C[C@H](N)C(=O)O [alanine] | slight reduction | – | –
5 | N[C@@H](CS)C(=O)O [cysteine] | blocked the NF-κB signal almost completely; also recorded: most effective | – | –
6 | NCC(=O)O [glycine] | did not have any effect | – | –
